Laboratory results from patent publication US12655148B2, “FXR small-molecule agonist, and preparation method therefor and use thereof” (Shanghai Institute of Materia Medica, Chinese Academy of …, priority 2020, dated 2026).
Where two headings read alike, the source gives them in different places.

Columns and labels:
[1] = target: T1, FXR receptor (Homo sapiens, UniProt Q96RI1); assay: FXR activity at the cellular level (FXRE luciferase reporter in 293T cells); format: cell-based
T1 construct: expressed in transfected cells; host or cells: 293T cells
T1 sequence (Q96RI1 1-486): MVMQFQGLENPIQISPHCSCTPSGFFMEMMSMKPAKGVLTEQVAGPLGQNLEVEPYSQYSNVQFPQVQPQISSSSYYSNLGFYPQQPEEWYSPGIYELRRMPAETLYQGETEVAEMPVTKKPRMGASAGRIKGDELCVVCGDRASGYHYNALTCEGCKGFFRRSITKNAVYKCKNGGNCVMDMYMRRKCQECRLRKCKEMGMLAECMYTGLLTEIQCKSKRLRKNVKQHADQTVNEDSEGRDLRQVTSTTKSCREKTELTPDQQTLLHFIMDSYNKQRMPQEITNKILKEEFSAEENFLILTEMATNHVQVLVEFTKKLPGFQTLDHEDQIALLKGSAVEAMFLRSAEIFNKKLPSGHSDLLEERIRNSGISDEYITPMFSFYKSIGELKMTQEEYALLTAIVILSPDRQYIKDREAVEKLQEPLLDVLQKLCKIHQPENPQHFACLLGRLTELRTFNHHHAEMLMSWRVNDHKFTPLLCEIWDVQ
Method: The cells were cultured for 24 hours to ensure plasmid expression. Then the FXR receptor agonists to be tested were added and incubated for 18 hours. The fluorescence intensity was detected using a luciferase kit (steady-Glo Luciferase Assay system) to reflect the compound's activation efficiency on the FXR receptor.

[2] = target: T2, recombinant GST-FXR fusion protein (Homo sapiens, UniProt Q96RI1); assay: FXR activity at the molecular level (AlphaScreen); format: biochemical
T2 sequence (Q96RI1 1-486): T1 sequence (Q96RI1 1-486)
Method: Test Method for FXR Activity at the Molecular Level
FXR activity was determined using recombinant GST-FXR fusion protein by AlphaScreen detection reagent from PerkinElmer. The reaction in this method was carried out in a 384-well plate, and the total reaction volume was 15 μL. A mixture of protein, agonist, co-regulatory factor, AlphaScreen® acceptor beads and AlphaScreen® donor beads was reacted in a buffer containing Tris-HCl 50 mM (pH7.4), 50 mM NaCl, BSA 0.1%, and 1 mM DTT. The FXR activity was reflected by the fluorescence signal intensity at 570 nm wavelength detected by the Envision fluorescence detector.

[3] = 293T cells, luciferase reporter
[4] = 293T cells, luciferase reporter, read-out: FXR activity at the celluar level EC50
[5] = AlphaScreen, GST-FXR, read-out: FXR activity at the molecular level EC50

## O=c1[nH]c(-c2ccc(N3[C@@H]4CC[C@H]3C[C@@H](OCc3c(-c5ccccc5OC(F)F)noc3C3CC3)C4)cc2F)no1 [Example 13]
[1]; [3]
  FXR activity at the celluar level Activity relative to OCA (%) 10 μM: 108%
[1]; [4]
  EC50: 0.1 to 1 nM
[2]; [5]
  EC50: 10 to 100 nM

## O=c1[nH]c(-c2ccc(N3[C@@H]4CC[C@H]3C[C@H](OCc3c(-c5c(Cl)cccc5Cl)noc3C3CC3)C4)cc2)no1 [Example 2]
[1]; [3]
  FXR activity at the celluar level Activity relative to OCA (%) 10 μM: 73%
[1]; [4]
  EC50: > 100 nM
[2]; [5]
  EC50: > 1000 nM

## O=c1[nH]c(-c2ccc(N3[C@@H]4CC[C@H]3C[C@@H](OCc3c(-c5ccccc5OC(F)(F)F)noc3C3CC3)C4)cc2F)no1 [Example 10]
[1]; [3]
  FXR activity at the celluar level Activity relative to OCA (%) 10 μM: 102%
[1]; [4]
  EC50: 0.1 to 1 nM
[2]; [5]
  EC50: 10 to 100 nM

## O=c1[nH]c(-c2ccc(N3[C@@H]4CC[C@H]3C[C@@H](OCc3c(-c5c(F)cccc5F)noc3C3CC3)C4)nc2)no1 [Example 3]
[1]; [3]
  FXR activity at the celluar level Activity relative to OCA (%) 10 μM: 116%
[1]; [4]
  EC50: 0.1 to 1 nM
[2]; [5]
  EC50: 10 to 100 nM

## O=c1[nH]c(-c2ccc(N3[C@@H]4CC[C@H]3C[C@@H](OCc3c(-c5ccccc5OC(F)(F)F)noc3C3CC3)C4)nc2)no1 [Example 6]
[1]; [3]
  FXR activity at the celluar level Activity relative to OCA (%) 10 μM: 122%
[1]; [4]
  EC50: 0.1 to 1 nM
[2]; [5]
  EC50: 10 to 100 nM

## O=c1[nH]c(-c2ccc(N3[C@@H]4CC[C@H]3C[C@@H](OCc3c(-c5ccccc5C(F)(F)F)noc3C3CC3)C4)cc2F)no1 [Example 9]
[1]; [3]
  FXR activity at the celluar level Activity relative to OCA (%) 10 μM: 102%
[1]; [4]
  EC50: 0.1 to 1 nM
[2]; [5]
  EC50: 10 to 100 nM

## O=c1[nH]c(-c2ccc(N3[C@@H]4CC[C@H]3C[C@@H](OCc3c(-c5c(Cl)cccc5Cl)noc3C3CC3)C4)nc2)no1 [Example 4]
[1]; [3]
  FXR activity at the celluar level Activity relative to OCA (%) 10 μM: 103%
[1]; [4]
  EC50: < 0.1 nM
[2]; [5]
  EC50: < 10 nM

## Cc1ccccc1-c1noc(C2CC2)c1CO[C@H]1C[C@H]2CC[C@@H](C1)N2c1ccc(-c2noc(=O)[nH]2)c(F)c1 [Example 14]
[1]; [3]
  FXR activity at the celluar level Activity relative to OCA (%) 10 μM: 106%
[1]; [4]
  EC50: 0.1 to 1 nM
[2]; [5]
  EC50: 10 to 100 nM

## O=c1[nH]c(-c2ccc(N3[C@@H]4CC[C@H]3C[C@@H](OCc3c(-c5ccccc5C(F)(F)F)noc3C3CC3)C4)nc2)no1 [Example 5]
[1]; [3]
  FXR activity at the celluar level Activity relative to OCA (%) 10 μM: 141%
[1]; [4]
  EC50: 0.1 to 1 nM
[2]; [5]
  EC50: 10 to 100 nM

## O=c1[nH]c(-c2ccc(N3[C@@H]4CC[C@H]3C[C@@H](OCc3c(-c5ccccc5OC(F)F)noc3C3CC3)C4)nc2)no1 [Example 11]
[1]; [3]
  FXR activity at the celluar level Activity relative to OCA (%) 10 μM: 108%
[1]; [4]
  EC50: 1 to 10 nM
[2]; [5]
  EC50: 10 to 100 nM

## Cc1ccccc1-c1noc(C2CC2)c1CO[C@H]1C[C@H]2CC[C@@H](C1)N2c1ccc(-c2noc(=O)[nH]2)cn1 [Example 12]
[1]; [3]
  FXR activity at the celluar level Activity relative to OCA (%) 10 μM: 105%
[1]; [4]
  EC50: 1 to 10 nM
[2]; [5]
  EC50: 10 to 100 nM

## O=c1[nH]c(-c2ccc(N3[C@@H]4CC[C@H]3C[C@@H](OCc3c(-c5c(Cl)cccc5Cl)noc3C3CC3)C4)cc2F)no1 [Example 8]
[1]
  EC50: < 0.1 nM
[1]; [3]
  FXR activity at the celluar level Activity relative to OCA (%) 10 μM: 102%
[2]; [5]
  EC50: < 10 nM

## O=c1[nH]c(-c2ccc(N3[C@@H]4CC[C@H]3C[C@@H](OCc3c(-c5c(F)cccc5F)noc3C3CC3)C4)cc2F)no1 [Example 7]
[1]
  EC50: 0.1 to 1 nM
[1]; [3]
  FXR activity at the celluar level Activity relative to OCA (%) 10 μM: 117%
[2]
  EC50: 10 to 100 nM

## O=c1[nH]c(-c2ccc(N3[C@@H]4CC[C@H]3C[C@@H](OCc3c(-c5c(Cl)cccc5Cl)noc3C3CC3)C4)cc2)no1 [Example 1]
[1]; [3]
  FXR activity at the celluar level Activity relative to OCA (%) 10 μM: 88%
[1]; [4]
  EC50: 1 to 10 nM
[2]; [5]
  EC50: < 10 nM
[2]; endo- versus exo-compound
  difference of activity on FXR at molecular level, endo-compound vs exo-compound: more than 100 times
